TGI and GI50 data for 14 compounds are collected here from PubChem BioAssay (NCI).

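Interpolation was linear, between the two tested concentrations surrounding the appropriate level; five concentrations were tested over 48 hours in 96-well plates. GI50 = concentration required for 50% inhibition of growth. TGI: total growth inhibition.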

What all share (experiment): inhibition of tumour cell growth, NCI panel, 48 h
The test system of experiment [1] is UACC-257 melanoma.
Experiment [2] has as its system EKVX NSCLC.
For experiment [3], the system named is PC-3 prostate.
Experiment [4] has as its system KM12 colon.
Experiment [5] has as its system M14 melanoma.
Experiment [6] deals with A549 NSCLC.
The subject of experiment [7] is MDA-MB-231 breast.
Experiment [8] has as its system MDA-N.
The test system of experiment [9] is HCT-15 colon.
The subject of experiment [10] is HOP-62 NSCLC.

For `COc1ccc(N2C(=O)CC(=O)N(C(=O)COc3ccc(OCC(=O)N4C(=O)CC(=O)N(c5ccc(OC)cc5)C4=S)cc3)C2=S)cc1`, the TGI in [1] is above 100 µM; in experiment [2] it was above 100 µM; in [3], above 100 µM; in experiment [4], 32.6 µM; in [5], above 100 µM; in experiment [6] it was above 100 µM. In addition, the TGI in experiment [7], in [8] and in [9] was above 100 µM throughout.
Turning to `COP(=O)(OC)C(Cc1cn(C(C)=O)c2ccccc12)C(=O)O` (stereo not drawn), the TGI in [1], in experiment [10], in [3], in [5], in experiment [6] and in experiment [7] was above 100 µM throughout. Besides, the TGI in [8] and in [9] was above 100 µM in each case.
As for `O=c1[nH]nc(-c2ccccc2)n1/N=C\c1ccccc1`, the TGI in [1], in experiment [2], in experiment [10], in experiment [3], in experiment [4] and in [6] was above 100 µM in each case. Besides, the TGI in experiment [7], in [8] and in experiment [9] was above 100 µM throughout.
Regarding `NC(=O)c1cccc([N+](=O)[O-])c1`, the TGI in [1], in experiment [2], in experiment [10], in experiment [4], in experiment [5] and in [6] was above 100 µM throughout. This compound returned a TGI in experiment [9] above 100 µM.
Consider `Cc1ccc(S(=O)(=O)n2c3ccc(Br)cc3c3nc4ccccc4nc32)cc1`, for which the TGI in experiment [1], in experiment [10], in experiment [3], in experiment [4], in experiment [5] and in experiment [6] was above 100 µM each time. The TGI in [7], in experiment [8] and in [9] was above 100 µM each time.
As for `CCNCCCn1c2c(c3ccc(Cl)cc3c1=O)C(=O)c1cc(OC)cnc1-2`, the GI50 is 14.5 µM in experiment [1]; 0.859 µM in experiment [2]; 0.122 µM in experiment [10]; 0.755 µM in experiment [4]; 0.518 µM in [5]; 0.459 µM in experiment [6]. For the same compound, the GI50 in [7] was 1.5 µM; in experiment [9], 1.02 µM. Besides, the TGI in experiment [1] was 32.9 µM; in experiment [2], 2.78 µM; in experiment [10], 1.43 µM; in experiment [4] it was 2.26 µM; in experiment [5] it was 2.06 µM; in experiment [6], 2.31 µM. Also, the TGI in [7] was 3.23 µM; in [9], 2.5 µM.
For the compound `O=C(NCCCCCCCCCCCCNC(=O)Nc1cccc2ccccc12)Nc1cccc2ccccc12`, the TGI in experiment [2] came to 43.3 µM; in experiment [10], 20.1 µM; in experiment [3], 29.7 µM; in [4] it was 33.6 µM; in experiment [5], 43.6 µM; in experiment [6] it was 32.9 µM. The TGI in [7] was found to be 35.9 µM; in experiment [8], 31.2 µM; in experiment [9], 36.8 µM.
With `O=c1cc(N2CCCC2)[nH]c(=O)n1Cc1ccccc1`, the TGI in experiment [1], in [2], in experiment [10], in experiment [3], in experiment [4] and in experiment [5] was above 100 µM each time. The TGI in experiment [6], in [7] and in experiment [9] was above 100 µM in each case.
As for `ClCCCc1ccccc1C1=NCCc2ccccc21`, the TGI in experiment [1], in experiment [2], in experiment [10], in experiment [3], in experiment [4] and in experiment [5] was above 100 µM each time. In addition, the TGI in experiment [6], in experiment [7] and in experiment [9] was above 100 µM each time.
As to `Cc1cc(F)ccc1S(=O)(=O)Nc1cc(-c2c(O)ccc3ccccc23)c(O)c2ccccc12`, the GI50 in [1] is 2.6 µM; in [2], 1.93 µM; in experiment [10], 3.27 µM; in [3], 1.37 µM; in experiment [4], 1.93 µM; in [5], 2.06 µM. Also, the GI50 in experiment [6] is 3.76 µM; in experiment [7] it was 2.64 µM; in [9] it was 2.68 µM. The TGI in experiment [1] worked out at 9.33 µM; in experiment [2] it was 7.45 µM; in [10] it was 18.7 µM; in [3], 5.12 µM; in experiment [4] it was 4.02 µM; in experiment [5] it was 5.4 µM. In addition, the TGI in experiment [6] turned out to be 15.5 µM; in experiment [7], 13.8 µM; in experiment [9], 11.4 µM.
Take `O=C1NC(=O)C(C(CC(=O)c2ccc([N+](=O)[O-])cc2)c2ccccc2)C(=O)N1` (stereo not drawn): the TGI in experiment [1] is above 100 µM; in experiment [10], above 100 µM; in experiment [3], above 100 µM; in experiment [4] it was 30.4 µM; in [5] it was above 100 µM; in experiment [6], above 100 µM. The TGI in experiment [7], in experiment [8] and in [9] was above 100 µM throughout.
On to `NC(=O)NNc1nc(-c2ccccc2)cs1`, for which the TGI in experiment [1], in experiment [2], in [10], in [3], in experiment [4] and in experiment [5] was above 100 µM each time. The TGI in experiment [6], in experiment [7] and in experiment [9] was above 100 µM each time.
Regarding `O=S(Nc1ccccc1)c1ccc(N2CCOCC2)cc1` (stereo not drawn), the TGI in [1], in experiment [2], in experiment [10], in [4], in experiment [5] and in experiment [6] was above 100 µM throughout. Also, the TGI in experiment [7] and in [9] was above 100 µM throughout.
On to `CO/N=C1\CC(NC(=O)CNC(=O)OC(C)(C)C)c2ccsc21` (stereo not drawn), for which the TGI in experiment [1], in experiment [2], in [10], in [3], in experiment [5] and in experiment [6] was above 100 µM in each case. Moreover, the TGI in [7], in experiment [8] and in experiment [9] was above 100 µM each time.
